Cytotoxicity data for 100 molecules are collected here from ChEMBL document CHEMBL3507680, “University of Dundee, Gates Library screen for HepG2 cell viability”.

This series can be described thus: Human HepG2 cell viability assay in 384 well format. It is filed as toxicity, cell-based. Particulars: HepG2 cells, read-out: Inhibition. Further details: dose 125 nL, time 70.5 hour; cytotoxicity at 70.5 h: concentration not given beside the values.
In the case of `COc1ccccc1-c1cc(C(=O)N(C)C)c2cnn(C)c2n1`, the cytotoxicity at 70.5 h was -11.2%.

With `NCCCC(=O)N1CCC2(CC1)CN(C(=O)c1ccc(Cl)cc1)CCO2`, the cytotoxicity at 70.5 h was -12.4%. With `O=C(C1CCCC1)N1CC2(CCN(C3COC3)C2)OCc2ccccc21` (stereo not given) the figure was -17.3%. For `O=C(C1CCCC1)N1CC2(CCN(C3COC3)CC2)Cc2ccccc21` the value was -21%. With `O=C(NC1CCCCC1)N1CCn2c(nnc2C2CCCN2)C1` (stereo not given) the figure was -12.5%. As to `Cc1cc(C(=O)NCc2ccc(F)cc2)c2c(C3CCCN3)noc2n1` (stereo not given), the cytotoxicity at 70.5 h is -6.52%.

For the molecule `Cc1cc(C(=O)NCC(C)C)c2c(C3CCCN3)noc2n1` (stereo not given), the cytotoxicity at 70.5 h was -5.52%. With `O=C(C1CCCC1)N1CCn2c(nnc2C2CCCNC2)C1` (stereo not given) the figure was -3.22%.

In the case of `O=C(c1ccc(Cl)cc1)N1CCn2c(nn(-c3ccc(Cl)cc3)c2=O)C1`, the cytotoxicity at 70.5 h was -1.63%. For `O=C(c1ccc(Cl)cc1)N1CCn2c(nn(-c3ccncc3)c2=O)C1` the value was -8.19%; for `O=C(c1ccc(Cl)cc1)N1CC2(CCNC2)OCc2ccccc21` (stereo not given), -5.43%; for `O=C(NC1CC1)C1CCc2nnc(-c3cccc(C(F)(F)F)c3)n21` (stereo not given), -11.5%. With `O=C1CC2(CCN(C(=O)c3ccccc3)C2)Nc2ccccc2N1` (stereo not given) the figure was -17.8%; with `COc1ccccc1-c1nc(C(=O)N(C)C)n2ccncc12`, -8.75%.

Turning to `O=C1NC2(Cc3ccccc31)CN(CC1CCNC1)C2` (stereo not given), the cytotoxicity at 70.5 h is -11.5%. For `O=C1NC2(Cc3ccccc31)CN(CC1CCCC1)C2` the value was -11.8%; for `O=C1NC2(Cc3ccccc31)CN(CC1CCNCC1)C2`, 12.6%. With `CC(C)CNC(=O)c1cc(C2CC2)nc2c1c(C1CCCN1)nn2C` (stereo not given) the figure was 13.8%; with `CC(=O)N1CC2(CCCCN2Cc2ccc(Cl)cc2)Cc2ccccc21` (stereo not given), 5.47%. With `CC(=O)N1CC2(CCCN(Cc3ccc(Cl)cc3)C2)Cc2ccccc21` (stereo not given) the figure was 5.61%; with `CC(=O)N1CC2(CCN(Cc3ccc(Cl)cc3)CC2)Cc2ccccc21`, 9.92%; with `O=C(NCc1cccnc1)c1ccc2nccn2c1`, 1.82%.

With `O=S1(=O)NC2(CCCN(Cc3ccc(Cl)cc3)C2)COc2ccccc21` (stereo not given), the cytotoxicity at 70.5 h was determined as 22.5%. `O=S1(=O)NC2(CCCN(Cc3ccc(F)cc3)C2)COc2ccccc21` (stereo not given): the cytotoxicity at 70.5 h was -3.88%.

Take `CN(C)C(=O)c1nc(-c2ccc(S(C)(=O)=O)cc2)c2ccccn12`: the cytotoxicity at 70.5 h was -12.8%.

Take `O=C(N1CCCCC1)N1CCN(c2ccc(Cl)nn2)C(=O)C1`: the cytotoxicity at 70.5 h is -5.68%. With `Cc1ccc(CCN2CCCC23Cc2ccccc2CNC3=O)cc1` (stereo not given) the figure was -4.38%. With `Cc1cc(C)c(CN2CCCC23Cc2ccccc2CNC3=O)c(C)c1` (stereo not given) the figure was -9.48%.

Regarding `CS(=O)(=O)N1Cc2ccccc2CC2(CCN(Cc3ccccn3)C2)C1` (stereo not given), the cytotoxicity at 70.5 h was -10.1%.

`CC(C)C(=O)N1Cc2ccccc2CC2(CCCN2C)C1` (stereo not given): the cytotoxicity at 70.5 h is -10.9%.

For `CN1CCCCC12Cc1ccccc1CN(C(=O)c1ccccc1)C2` (stereo not given), the cytotoxicity at 70.5 h is -5.36%.

As to `O=C(c1ccc(Cl)cc1)N1CCC2(C1)C(=O)Nc1ccccc12` (stereo not given), the cytotoxicity at 70.5 h was -7.9%. With `CC(=O)N1CCC2(CC1)CC(NS(C)(=O)=O)c1ccccc1O2` (stereo not given) the figure was -4.04%; with `CN1Cc2ccccc2NC(=O)C12CCNC2` (stereo not given), -2.63%. With `N#Cc1ccc(CN2CCCC3(Cc4ccccc4CNC3=O)C2)cc1` (stereo not given), the cytotoxicity at 70.5 h was 31.4%. With `O=C1NCc2ccccc2CC12CCCN(Cc1ccsc1)C2` (stereo not given) the figure was 2.74%; with `O=C1NCc2ccccc2CC12CCN(Cc1c(F)cccc1Cl)C2` (stereo not given), -5.69%. With `O=C(NCC1CC1)c1cc(C2CC2)nc2onc(C3CCCNC3)c12` (stereo not given) the figure was -7.5%; with `CC(C)CNC(=O)c1cc(C2CC2)nc2onc(C3CCNCC3)c12`, -3.04%; with `O=C(c1ccc(Cl)cc1)N1CCC(N2CCCOC2=O)CC1`, -6.91%.

Regarding `O=C(C1CCCCC1)N1CCC2(COc3ncccc3S(=O)(=O)N2)C1` (stereo not given), the cytotoxicity at 70.5 h was -4.42%. With `O=C(NC1CCCCC1)N1CCCC1c1nnc2n1CCNC2` (stereo not given) the figure was 19.4%.

As to `O=C(N1CCCCC1)N1CCCC1c1nnc2n1CCNC2` (stereo not given), the cytotoxicity at 70.5 h was 17.6%. With `CN1CCC2(Cc3ccccc3CN(C(=O)c3ccc(Cl)cc3)C2)C1` (stereo not given), the cytotoxicity at 70.5 h was 35.9%.

For the molecule `CN1CCC2(Cc3ccccc3CN(C(=O)CCN)C2)C1` (stereo not given), the cytotoxicity at 70.5 h worked out at 27.3%. For `O=C1Nc2ccccc2CC12CCCN2Cc1ccccn1` (stereo not given) the value was 29.1%; for `CC(C)NC(=O)NCc1nnc2n1C(C(=O)N(C)C)CC2` (stereo not given), -3.97%; for `CC(C)NC(=O)C1CCc2nnc(CNC(=O)C3CC3)n21` (stereo not given), -6.43%. As to `CN1CC(=O)N(C2CCC2)Cc2c(NC3CCNCC3)ncnc21`, the cytotoxicity at 70.5 h is -3.78%.

Turning to `CN1CC(=O)N(C2CCNC2)Cc2c(NC3CCCC3)ncnc21` (stereo not given), the cytotoxicity at 70.5 h is -5.19%. For `CN1CC(=O)N(C2CCCNC2)Cc2c(NC3CCC3)ncnc21` (stereo not given) the value was -3.06%. For `CN(Cc1nc2ccccc2[nH]1)C(=O)CN(C)c1ccc(Cl)cn1` the value was 7.7%; for `NC(=O)C(NC1CCN(Cc2ccc(F)cc2)CC1)c1ccccc1` (stereo not given), -13.1%. With `COc1ccccc1C(NC(=O)CN(C)C(C)C)c1noc(C)n1` (stereo not given) the figure was -2.25%; with `CC(C)(CNC(=O)c1ccco1)NC(=O)OC(C)(C)C`, -12.7%; with `CC(C)(CNC(=O)c1ccc(Cl)o1)NC(=O)OC(C)(C)C`, 22.2%. As for `Cn1cc(N2CCN(c3ccc(C#N)c(Cl)c3)CC2=O)cn1`, the cytotoxicity at 70.5 h was -14.1%. For `Cn1ccc(N2CCCC(NC(=O)c3ccsc3)C2=O)n1` (stereo not given) the value was 20.9%; for `NC(=O)CCn1ccc(NCc2cc(F)ccc2Br)n1`, -10.5%. `O=C(O)c1cnc(OCC2CC2)c(Cl)c1`: the cytotoxicity at 70.5 h was -0.42%. On to `Cn1cc(N2CCN(c3ccc(C#N)cc3Br)CC2=O)cn1`, for which the cytotoxicity at 70.5 h was -4.85%. For `CC(CO)NC(=O)Nc1ccc(CC#N)cc1` (stereo not given) the value was -4.42%; for `CCC(C)(CC(=O)OC)NCc1noc(C)n1` (stereo not given), 26.6%; for `CSCCC(=O)N1CCN(CC(C)O)CC1` (stereo not given), -2.96%. In the case of `CCN(Cc1ncc(C(C)(C)C)o1)Cc1ccccc1C`, the cytotoxicity at 70.5 h was -1.58%.

Take `CCN(CC(C)O)C(=O)Nc1cnn(CCOC)c1` (stereo not given): the cytotoxicity at 70.5 h worked out at 6.07%.

Consider `COCCN(Cc1ccc(C)o1)C(=O)Nc1nnc(C(F)F)s1`, for which the cytotoxicity at 70.5 h was -7.33%. For `CCN1CCN2CCCN(S(=O)(=O)c3cccc(F)c3)C2C1=O` (stereo not given) the value was -8.84%. For `CS(=O)(=O)Cc1cccc(CNS(=O)(=O)c2ccc(F)c(F)c2)c1` the value was -8.75%; for `Cc1ccc(F)c(S(=O)(=O)NCc2cccc(CS(C)(=O)=O)c2)c1`, -18%; for `Cc1nn(C)c(C)c1C(=O)N1CCN(C(=O)CCC2CCCCC2)CC1`, -13.4%.

Take `COC(=O)CC(NC(=O)CCn1cccn1)c1ccc(C)cc1` (stereo not given): the cytotoxicity at 70.5 h was -0.705%. On to `Cc1nc(C(=O)N(CC(=O)N(C)C)CC(F)(F)F)c2ccccn12`, for which the cytotoxicity at 70.5 h was -4.52%. For `Cc1occc1C(=O)NCC(O)c1ccc(Cl)s1` (stereo not given) the value was 3.32%; for `NC(=O)CN1CCN(S(=O)(=O)N2CCCC2c2ccco2)CC1` (stereo not given), -3.32%; for `O=c1[nH]c(C2CCOC2)nc2cc(F)c(F)cc12` (stereo not given), -10.3%. Turning to `CC(C)CNC(=O)C(C)N1CCN(C2CCN(C(C)C)CC2)CC1` (stereo not given), the cytotoxicity at 70.5 h was -12.6%.

As to `COc1cc(CNc2cc(-c3ccoc3C)nn2CCO)ccc1F`, the cytotoxicity at 70.5 h was determined as 11.9%. With `O=C(c1ccc(-n2cccn2)nc1)N1CCC(c2ccc(O)cc2)CC1` the figure was -5.83%; with `COc1ccc(C(C)NCc2nnc(C)s2)cc1F` (stereo not given), -2.29%; with `Cc1nnc(CNC(C)c2cc(C)c(F)c(C)c2)s1` (stereo not given), -5.2%. For `Cc1cc(C)cc(C(C)NCc2nnc(C)s2)c1` (stereo not given) the value was -12%; for `COCCN(Cc1ccc(C)o1)C(=O)Nc1ncc(C)s1`, -8.73%; for `CCN(Cc1cccc(Cl)c1)Cc1ncc(C(C)(C)C)o1`, -1.17%. For `COc1cc(NCCNC(=O)c2cc[nH]c2C)cc(OC)c1` the value was 3.9%. On to `NC(=O)CC1CCN(S(=O)(=O)N2CCCC2c2ccco2)CC1` (stereo not given), for which the cytotoxicity at 70.5 h was -5.7%.

As to `COC(=O)CC(NC(=O)CCCn1cccn1)c1ccc(Cl)cc1` (stereo not given), the cytotoxicity at 70.5 h is -14.1%. For `COCc1nnc(-c2cccc(C(=O)N(C)CC(C)(C)C)c2)o1` the value was -14.1%.

With `Cc1noc(CCCNC(=O)C2CSCN2C(=O)C(C)(C)C)n1` (stereo not given), the cytotoxicity at 70.5 h is 18.7%.

For the molecule `Cc1ccc(CCCC(=O)N2CCC(=O)Nc3cccnc32)s1`, the cytotoxicity at 70.5 h was 12.9%.

`Cc1ncsc1CCN(C)Cc1ccc(Br)o1`: the cytotoxicity at 70.5 h was found to be 9.94%. For `CC(C)c1nnc(NC(=O)Cc2csc(-c3nnc[nH]3)n2)s1` the value was 22.4%; for `Cc1cnn(C2CN(c3nc(-c4ccncc4)nc4c3CCC4)C2)c1`, -6.05%; for `CCC(C)c1csc(NC(=O)c2sc(-c3nnc[nH]3)nc2C)n1` (stereo not given), -9.94%.

`Cc1nn2cccnc2c1C(=O)NCc1ccccc1OCC1CC1`: the cytotoxicity at 70.5 h was -13.8%.

Consider `N#Cc1cccnc1Nc1ccc(N2CCC(C(N)=O)CC2)cc1`, for which the cytotoxicity at 70.5 h was 4.18%. With `CNC(=O)CCOC(=O)c1cccc(-n2cccn2)c1` the figure was -10.7%; with `O=C(Nc1cccc(C(=O)OCC2CCCN2)c1)c1ccoc1` (stereo not given), 5.78%; with `O=C(OCC1CCCN1)c1cccc(NC(=O)c2ccco2)c1` (stereo not given), -14.8%. For `Cc1occc1C(=O)Nc1cccc(C(=O)OCC2CCCN2)c1` (stereo not given) the value was 23.7%.
